Numbers after ± are expanded uncertainties.
Key:
[1] = 298.15 K; 101.33 kPa; Liquid; Pycnometric method
[2] = xn = mol fraction of the nth substance listed; details: 298.15 K, 101.3 kPa, Liquid; for viscosity: Concentric cylinders viscometry; for mass density: Pycnometric method

Structure (SMILES)	viscosity ([2]; x1 = 0.1) [mPa·s]	viscosity ([2]; x1 = 0.2) [mPa·s]	viscosity ([2]; x1 = 0.3) [mPa·s]	viscosity ([2]; x1 = 0.4) [mPa·s]	viscosity ([2]; x1 = 0.5) [mPa·s]	viscosity ([2]; x1 = 0.6) [mPa·s]	viscosity ([2]; x1 = 0.7) [mPa·s]	viscosity ([2]; x1 = 0.8) [mPa·s]	viscosity ([2]; x1 = 0.9) [mPa·s]	viscosity ([2]; x1 = 1) [mPa·s]	mass density ([2]; x1 = 1) [kg/m3]	viscosity ([2]; x2 = 0) [mPa·s]	also measured
CCCCCCC(=O)O [heptanoic acid]													mass density [1]: 918 ± 3.8 kg/m3
CCCCCCCC(=O)[O-].CC[NH+](C(C)C)C(C)C [N-ethyl-N-isopropylpropan-2-aminium octanoate] + O	36.61 ± 2.2	52.36 ± 3.1	42.39 ± 2.6	32.19 ± 1.9	27.62 ± 1.7	26.19 ± 1.6	21.29 ± 1.3	18.05 ± 1.1	16.65 ± 1	13.52 ± 0.84	858.5 ± 3.7		mass density ([2]; x1 = 0.0948): 955.1 ± 3.8 kg/m3; mass density ([2]; x1 = 0.193): 927.3 ± 3.7 kg/m3; mass density ([2]; x1 = 0.2908): 905.7 ± 3.7 kg/m3; mass density ([2]; x1 = 0.3981): 890.6 ± 3.6 kg/m3; mass density ([2]; x1 = 0.505): 877.4 ± 3.6 kg/m3; mass density ([2]; x1 = 0.5846): 872.2 ± 3.6 kg/m3; mass density ([2]; x1 = 0.6749): 867.2 ± 3.6 kg/m3; mass density ([2]; x1 = 0.7994): 862.9 ± 3.6 kg/m3; mass density ([2]; x1 = 0.86): 861 ± 3.6 kg/m3
CCN(C(C)C)C(C)C [N-ethyl-N-(1-methylethyl)-1-methylethanamine]													mass density [1]: 742 ± 3 kg/m3
O [water] + CCCCCCC(=O)[O-].CC[NH+](C(C)C)C(C)C												0.891 ± 0.054	
CCCCCCC(=O)[O-].CC[NH+](C(C)C)C(C)C [N-ethyl-N-isopropylpropan-2-aminium heptanoate] + O	21.99 ± 1.3	43.71 ± 2.6	41.58 ± 2.5	31.51 ± 1.9	26.92 ± 1.6	23.65 ± 1.4	22.67 ± 1.4	18.07 ± 1.1	14.44 ± 0.89	12.23 ± 0.76	866.5 ± 3.8		mass density ([2]; x1 = 0.0998): 966.3 ± 3.9 kg/m3; mass density ([2]; x1 = 0.198): 936.2 ± 3.8 kg/m3; mass density ([2]; x1 = 0.299): 913.6 ± 3.7 kg/m3; mass density ([2]; x1 = 0.4007): 900.3 ± 3.6 kg/m3; mass density ([2]; x1 = 0.5007): 889.9 ± 3.6 kg/m3; mass density ([2]; x1 = 0.5941): 884 ± 3.6 kg/m3; mass density ([2]; x1 = 0.6913): 877.2 ± 3.6 kg/m3; mass density ([2]; x1 = 0.7896): 872.6 ± 3.6 kg/m3; mass density ([2]; x1 = 0.9014): 869.5 ± 3.7 kg/m3
CCCCCCCC(=O)[O-].CC[NH+](C(C)C)C(C)C [N-ethyl-N-isopropylpropan-2-aminium octanoate] + CC#N	1.291 ± 0.078	1.947 ± 0.12	2.865 ± 0.17	4.921 ± 0.3	6.897 ± 0.42	8.725 ± 0.53	11 ± 0.67	13.31 ± 0.82	14.82 ± 0.91	13.52 ± 0.84	858.5 ± 3.7		mass density ([2]; x1 = 0.0948): 815.2 ± 3.3 kg/m3; mass density ([2]; x1 = 0.193): 834.3 ± 3.4 kg/m3; mass density ([2]; x1 = 0.2908): 842.2 ± 3.4 kg/m3; mass density ([2]; x1 = 0.3981): 847.3 ± 3.5 kg/m3; mass density ([2]; x1 = 0.505): 850 ± 3.5 kg/m3; mass density ([2]; x1 = 0.5846): 852 ± 3.5 kg/m3; mass density ([2]; x1 = 0.6749): 853.3 ± 3.5 kg/m3; mass density ([2]; x1 = 0.7994): 855.8 ± 3.6 kg/m3; mass density ([2]; x1 = 0.86): 856.5 ± 3.6 kg/m3
CC#N [acetonitrile] + CCCCCCCC(=O)[O-].CC[NH+](C(C)C)C(C)C												0.335 ± 0.021	mass density ([2]; x2 = 0): 768.6 ± 3.1 kg/m3
O [water] + CCCCCCCC(=O)[O-].CC[NH+](C(C)C)C(C)C												0.891 ± 0.054	
CCCCCCC(=O)[O-].CC[NH+](C(C)C)C(C)C [N-ethyl-N-isopropylpropan-2-aminium heptanoate] + CC#N	1.09 ± 0.066	1.826 ± 0.11	2.51 ± 0.15	3.875 ± 0.24	5.158 ± 0.31	7.013 ± 0.43	9 ± 0.55	11.6 ± 0.71	13.5 ± 0.83	12.23 ± 0.76	866.5 ± 3.8		mass density ([2]; x1 = 0.1016): 820.6 ± 3.3 kg/m3; mass density ([2]; x1 = 0.2003): 840.8 ± 3.4 kg/m3; mass density ([2]; x1 = 0.3046): 849.7 ± 3.5 kg/m3; mass density ([2]; x1 = 0.402): 853.8 ± 3.5 kg/m3; mass density ([2]; x1 = 0.5021): 857.1 ± 3.5 kg/m3; mass density ([2]; x1 = 0.6083): 859.8 ± 3.6 kg/m3; mass density ([2]; x1 = 0.705): 862.3 ± 3.6 kg/m3; mass density ([2]; x1 = 0.8013): 863.9 ± 3.6 kg/m3; mass density ([2]; x1 = 0.9013): 865.4 ± 3.7 kg/m3
CCCCCCCC(=O)O [octanoic acid]													mass density [1]: 910 ± 3.7 kg/m3
CC#N [acetonitrile] + CCCCCCC(=O)[O-].CC[NH+](C(C)C)C(C)C												0.335 ± 0.021	mass density ([2]; x2 = 0): 768.6 ± 3.1 kg/m3

From the NIST ThermoML archive (doi:10.1021/je101191e)
